16 compounds from patent publication US20230241243A1, “CARRIER PARTICLE-DRUG CONJUGATES, SELF-IMMOLATIVE LINKERS, AND USES THEREOF” (priority 2020, published 2023) can be followed below.

Series [1] has as its system KB cell line. The note with it: read-out: IC50 in KB cell line (++++); FA ligands per particle 12-22; linker-drug conjugates per particle 17-25. How it is done: The in vitro cytotoxicity of the NDCs disclosed herein were tested in cancer cells. The cancer cells were cultured in folic acid-free medium (RPMI1640, ThermoFisher, GIBCO) for at least one week before the study. Cells were plated in opaque 96-well plates at a density of 3×10^3 cells per well (total of […]) and allowed to attach overnight. The following day, cells were treated with NDC (FA-CDC) prepared using the linker-payload conjugate precursor compound 202 (Example 33), at a concentration range of 0-50 nM (0, 0.001, 0.005, 0.01, 0.05, 0.1, 0.5, 1, 5, 10, 50 nM) by adding […] of 10x stock FA-CDC Solution.
Cells were treated for a pre-defined exposure time (depending on the study design, e.g., 4-6 hours, or 7 days). In the case of short-exposure-time viability study, cancer cells in each wells were washed with […] PBS and refreshed with […] of cell medium. After washing, the plates were returned back to 37° C. incubator for 7 days before the viability assay. In the case of 7-day-exposure-time viability study, no additional washing step was performed. After 7 days, the cell viability was assessed using the CellTiter-Glo2.0 assay (Promega) according to manufacturer's instructions. Data for both viability and proliferation were plotted using Prism7 software (GraphPad).

Series [2] in a line: Drug-release assay of nanoparticle-conjugated linker-payloads under cleavage conditions (Cat-B, redox-responsive or pH-sensitive cleaving study), RP-HPLC. Format: in vitro ADME. Conditions: 37° C.; for % of Payload Release in 24 Hours Under Cleavage Conditions: linker-payload conjugated to DBCO-functionalized silica nanoparticle. The method, boiled down: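 Azide linker-drugs were click-conjugated to DBCO-functionalized ultrasmall silica nanoparticles and incubated under cleavage conditions, e.g., Cat-B in 25 mM MES, 5 mM DTT, pH 5.0. Released versus non-released drug was quantified by C18 RP-HPLC peak area. Gradients were 0.01% TFA water/acetonitrile for protease/redox linkers and water/acetonitrile for pH-sensitive linkers.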

The test system of series [3] is Human KB cells. Description: Cell viability assay of payloads (CellTiter-Glo 2.0). It counts as cell-based. Conditions: 168 h, read-out: IC50 values (diluted in RPMI medium). The protocol: Method: Human KB cells (ATCC® CCL-17™) were cultured in folic acid free rpmi-1640 medium (ThermoFisher, GIBCO) for at least 7 days before the study. The cells were seeded in opaque 96-well plates and allowed to attach overnight (cell density was carefully controlled to be 3,000 cells per well at the time of assay). After that, cells were treated with drug analogs (suspended in the same RPMI-1640 medium) at a concentration of zero to 1,000 nM. After 7 days, cell viability was assessed using the CellTiter-Glo® 2.0 assay (Promega) according to the manufacturer's instructions. The percent of viable cells at each concentration was calculated by normalizing the luminescence values to the untreated control. The half-maximal inhibitory concentration (IC50) of the payloads were plotted and fitted by using the Prism 8 software (GraphPad). Table 2 provides the IC50 of the payloads of the present disclosure (‘+’ indicates 1-9.9 nm; ‘++’ indicates 10-100 nm).
(Cellular ATP, detected with luciferase, serves as a proxy for viable cell number.)

Structures can show the parent of a compound that is named as a salt. Where two headings read alike, the source gives them in different places.

As usually defined, the IC50 is the concentration that inhibits the measured activity by half. On to `CC[C@@]1(O)C(=O)OCc2c1cc1n(c2=O)Cc2c-1nc1cc(F)c(C)c3c1c2[C@@H](NC(=O)OCc1c(F)cc(NC(=O)[C@H](CCCNC(N)=O)NC(=O)[C@@H](NC(=O)CCOCCOCCOCCOCCOCCOCCOCCOCCOCCN=[N+]=[N-])C(C)C)cc1F)CC3` (single isomer, unassigned) [Example 27, 4-((32s,35s)-1-azido-32-isopropyl-30,33-dioxo-35-(3-ureidopropyl)-3,6,9,12,15,18,21,24,27-nonaoxa-31,34-diazahexatriacontan-36-amido)-2,6-difluorobenzyl ((1s,9s)-9-ethyl-5-fluoro-9-hydroxy-4-methyl-10,13-dioxo-2,3,9,10,13,15-hexahydro-1H,12H-benzo[de]pyrano[3′,4′:6,7]indolizino[1,2-b]quinolin-1-yl)carbamate], for which, in series [1], the half-maximal inhibitory concentration (IC50) stood at 5.2 nM. The “% of Payload Release in 24 Hours Under Cleavage Conditions” value in series [2] is “++++ (‘++++’ indicates 76-100% release)”.

Consider `CC[C@@]1(O)C(=O)OCc2c1cc1n(c2=O)Cc2c-1nc1cc(F)c(C)c3c1c2[C@@H](NC(=O)C(O)c1ccc(NC(=O)[C@H](CCCNC(N)=O)NC(=O)[C@@H](NC(=O)CCOCCOCCOCCOCCOCCOCCN=[N+]=[N-])C(C)C)cc1)CC3` (stereo partly drawn) [Example 18, 1-azido-N-((2S)-1-(((2S)-1-((4-(2-(((1S,9S)-9-ethyl-5-fluoro-9-hydroxy-4-methyl-10,13-dioxo-2,3,9,10,13,15-hexahydro-1H,12H-benzo[de]pyrano[3′,4′:6,7]indolizino[1,2-b]quinolin-1-yl)amino)-1-hydroxy-2-oxoethyl)phenyl)amino)-1-oxo-5-ureidopentan-2-yl)amino)-3-methyl-1-oxobutan-2-yl)-3,6,9,12,15,18-hexaoxahenicosan-21-amide], for which the 50% inhibitory concentration (IC50) in series [1] was determined as 17.5 nM. For the same compound, in series [2], the “% of Payload Release in 24 Hours Under Cleavage Conditions” value was “+++ (‘+++’ indicates 51-75% release)”. For the compound `CCc1c2c(nc3ccc(OCCCNC(=O)OCc4ccc(NC(=O)[C@H](CCCCN)NC(=O)[C@H](Cc5ccccc5)NC(=O)CCOCCOCCOCCOCCOCCOCCOCCOCCOCCN=[N+]=[N-])cc4)cc13)-c1cc3c(c(=O)n1C2)COC(=O)[C@]3(O)CC` [Example 28, 4-((32S,35S)-35-(4-aminobutyl)-1-azido-32-benzyl-30,33-dioxo-3,6,9,12,15,18,21,24,27-nonaoxa-31,34-diazahexatriacontan-36-amido)benzyl (3-(((S)-4,11-diethyl-4-hydroxy-3,14-dioxo-3,4,12,14-tetrahydro-1H-pyrano[3′,4′:6,7]indolizino[1,2-b]quinolin-9-yl)oxy)propyl)carbamate], the 50% inhibitory concentration (IC50) in series [1] was 72.2 nM. The “% of Payload Release in 24 Hours Under Cleavage Conditions” value in series [2] is given as “+++ (‘+++’ indicates 51-75% release)”. Take `CCc1c2c(nc3ccc(OCC(=O)N/N=C(/C)c4ccc(OCCOCCOCCOCCOCCOCCN=[N+]=[N-])cc4)cc13)-c1cc3c(c(=O)n1C2)COC(=O)[C@]3(O)CC` [Example 64, (S,Z)-N′-(1-(4-((17-azido-3,6,9,12,15-pentaoxaheptadecyl)oxy)phenyl)ethylidene)-2-((4,11-diethyl-4-hydroxy-3,14-dioxo-3,4,12,14-tetrahydro-1H-pyrano[3′,4′:6,7]indolizino[1,2-b]quinolin-9-yl)oxy)acetohydrazide]: the “% of Payload Release Under Cleavage Conditions” value in series [2] (linker-payload conjugated to nanoparticle, @ 3 Hrs) was “+++ @ 3 Hrs (‘+++’ indicates 51-75% release)”. As to `CCc1c2c(nc3ccc(OCC(=O)N/N=C(\C)c4ccc(OCCCCOCCOCCOCCOCCOCCOCCN=[N+]=[N-])cc4)cc13)-c1cc3c(c(=O)n1C2)COC(=O)[C@]3(O)CC` [Example 75, (S,E)-N′-(1-(4-((1-azido-3,6,9,12,15,18-hexaoxadocosan-22-yl)oxy)phenyl)ethylidene)-2-((4,11-diethyl-4-hydroxy-3,14-dioxo-3,4,12,14-tetrahydro-1H-pyrano[3′,4′:6,7]indolizino[1,2-b]quinolin-9-yl)oxy)acetohydrazide], the IC50 in series [1] came to 42.7 nM. For `CCc1c2c(nc3ccc(OCCCN)cc13)-c1cc3c(c(=O)n1C2)COC(=O)[C@]3(O)CC` [Example 105], in series [3] (Homo sapiens, KB), the IC50 is 1 to 9.9 nM.

For the compound `CCc1c2c(nc3ccc(OCCCSC(C)=O)cc13)-c1cc3c(c(=O)n1C2)COC(=O)[C@]3(O)CC` [Example 327], the IC50 in series [3] (Homo sapiens, KB) lay in the range of 10 to 100 nM.

With `CCc1c2c(nc3ccc(OCCCSSC(C)(C)CN)cc13)-c1cc3c(c(=O)n1C2)COC(=O)[C@]3(O)CC` [Example 331], the IC50 in series [3] (Homo sapiens, KB) was in the range of 10 to 100 nM. On the same count and under the same terms, to `CC[C@@]1(O)C(=O)OCc2c1cc1n(c2=O)Cc2c-1nc1cc(F)c(C)c3c1c2[C@@H](Nc1nc(Cl)nc(NCCSSC(C)(C)CN)n1)CC3` [Example 377, (1S,9S)-1-((4-((2-((1-amino-2-methylpropan-2-yl)disulfaneyl)ethyl)amino)-6-chloro-1,3,5-triazin-2-yl)amino)-9-ethyl-5-fluoro-9-hydroxy-4-methyl-1,2,3,9,12,15-hexahydro-10H,13H-benzo[de]pyrano[3′,4′:6,7]indolizino[1,2-b]quinoline-10,13-dione 2,2,2-trifluoroacetate] belongs 10 to 100 nM; to `CCc1c2c(nc3ccc(OCC(=O)NN)cc13)-c1cc3c(c(=O)n1C2)COC(=O)[C@]3(O)CC` [Example 385, (S)-2-((4,11-diethyl-4-hydroxy-3,14-dioxo-3,4,12,14-tetrahydro-1H-pyrano[3′,4′:6,7]indolizino[1,2-b]quinolin-9-yl)oxy)acetohydrazide], 10 to 100 nM; to `CC[C@]1(O)C(=O)OCc2c1cc1n(c2=O)Cc2c-1nc1cc(F)c(C)c3c1c2[C@H](NC(=O)C(C)(C)C(=O)NN)CC3` [Example 410, N-((1R,9R)-9-ethyl-5-fluoro-9-hydroxy-4-methyl-10,13-dioxo-2,3,9,10,13,15-hexahydro-1H,12H-benzo[de]pyrano[3′,4′:6,7]indolizino[1,2-b]quinolin-1-yl)-3-hydrazineyl-2,2-dimethyl-3-oxopropanamide], 10 to 100 nM. Turning to `CCc1c2c(nc3ccc(OC(C)(C)C(=O)NN)cc13)-c1cc3c(c(=O)n1C2)COC(=O)[C@]3(O)CC` [Example 422, (S)-2-((4,11-diethyl-4-hydroxy-3,14-dioxo-3,4,12,14-tetrahydro-1H-pyrano[3′,4′:6,7]indolizino[1,2-b]quinolin-9-yl)oxy)-2-methylpropanehydrazide], in series [3] (Homo sapiens, KB), the IC50 lay in the range of 10 to 100 nM. The same measure, in the same setting: the figure for `CC[C@@]1(O)C(=O)OCc2c1cc1n(c2=O)Cc2c-1nc1cc(F)c(C)c3c1c2[C@@H](NC(=O)CS)CC3` [Example 452, N-((1S,9S)-9-ethyl-5-fluoro-9-hydroxy-4-methyl-10,13-dioxo-2,3,9,10,13,15-hexahydro-1H,12H-benzo[de]pyrano[3′,4′:6,7]indolizino[1,2-b]quinolin-1-yl)-2-mercaptoacetamide] is 10 to 100 nM.

As to `CC[C@@]1(O)C(=O)OCc2c1cc1n(c2=O)Cc2c-1nc1cc(F)c(C)c3c1c2[C@@H](NC(=O)CSSC(C)(C)CN)CC3` [Example 454, 2-((1-amino-2-methylpropan-2-yl)disulfaneyl)-N-((1S,9S)-9-ethyl-5-fluoro-9-hydroxy-4-methyl-10,13-dioxo-2,3,9,10,13,15-hexahydro-1H,12H-benzo[de]pyrano[3′,4′:6,7]indolizino[1,2-b]quinolin-1-yl)acetamide 2,2,2-trifluoroacetic acid salt], in series [3] (Homo sapiens, KB), the IC50 lay within 10 to 100 nM.

With `CC[C@@]1(O)C(=O)OCc2c1cc1n(c2=O)Cc2c-1nc1cc(F)c(C)c3c1c2[C@@H](NC(=O)C(O)c1ccc(N)cc1)CC3` (stereo partly drawn) [Example 458, 2-(4-aminophenyl)-N-((1S,9S)-9-ethyl-5-fluoro-9-hydroxy-4-methyl-10,13-dioxo-2,3,9,10,13,15-hexahydro-1H,12H-benzo[de]pyrano[3′,4′:6,7]indolizino[1,2-b]quinolin-1-yl)-2-hydroxyacetamide], in series [3] (Homo sapiens, KB), the 50% inhibitory concentration (IC50) lay in the range of 1 to 9.9 nM. Consider `CCc1c2c(nc3ccc(Oc4nc(Cl)nc(NCCSSCCN)n4)cc13)-c1cc3c(c(=O)n1C2)COC(=O)[C@]3(O)CC` [Example 463, (S)-9-((4-((2-((2-aminoethyl)disulfaneyl)ethyl)amino)-6-chloro-1,3,5-triazin-2-yl)oxy)-4,11-diethyl-4-hydroxy-1,12-dihydro-14H-pyrano[3′,4′:6,7]indolizino[1,2-b]quinoline-3,14(4H)-dione], for which the 50% inhibitory concentration (IC50) in series [3] (Human KB cells, 7 days treatment, 0-1,000 nM) lay within 10 to 100 nM.
